Measured values reported in PubChem BioAssay (NCI).
Several values for one entry are separate records, joined by “and”; a condition that tells them apart may be missing. Identical values can stand only once.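 Tested at 5 concentrations; 48 h exposure; 96-well plates; endpoints linearly interpolated, else capped at highest concentration. At the GI50, growth is halved. The concentration for full growth arrest is given as TGI.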

Legend:
Assay in all cases: DTP human tumour cell line panel, 48 h
UACC-62 melanoma = tested on: UACC-62 melanoma
KM12 colon = tested on: KM12 colon
HOP-62 NSCLC = tested on: HOP-62 NSCLC
SK-OV-3 ovarian = tested on: SK-OV-3 ovarian
OVCAR-5 ovarian = tested on: OVCAR-5 ovarian
ACHN renal = tested on: ACHN renal
IGROV1 ovarian = tested on: IGROV1 ovarian
SW-620 colon = tested on: SW-620 colon
MALME-3M melanoma = tested on: MALME-3M melanoma
A549 NSCLC = tested on: A549 NSCLC

Row | SMILES | TGI (UACC-62 melanoma) [µM] | TGI (KM12 colon) [µM] | TGI (HOP-62 NSCLC) [µM] | TGI (SK-OV-3 ovarian) [µM] | TGI (OVCAR-5 ovarian) [µM] | TGI (ACHN renal) [µM] | TGI (IGROV1 ovarian) | TGI (SW-620 colon) [µM] | TGI (MALME-3M melanoma) [µM] | TGI (A549 NSCLC) [µM] | GI50 (UACC-62 melanoma) [µM] | GI50 (KM12 colon) [µM] | GI50 (ACHN renal) [µM] | GI50 (IGROV1 ovarian) [µM] | GI50 (SW-620 colon) [µM] | GI50 (MALME-3M melanoma) [µM] | GI50 (A549 NSCLC) [µM] | GI50 (HOP-62 NSCLC) [µM] | GI50 (SK-OV-3 ovarian) [µM] | GI50 (OVCAR-5 ovarian) [µM]
1 | O=c1c(Cc2ccccc2)c(O)cc2n1CCC2 | > 100 | > 100 | > 100 | > 100 | > 100 | > 100 | > 100 µM | > 100 | > 100 | > 100 |  |  |  |  |  |  |  |  |  | 
2 | [N-]=[N+]=CC(=O)CCC(N)C(=O)O (configuration not stated) | > 147 | > 250 | 43.2 | 34.3 | > 186 | > 250 | 43 µM and > 134 µM | > 250 | > 250 | > 250 | 3.82 | 3.14 | 5.54 | 3.51 | 12.6 | 7.27 | 2.78 |  |  | 
3 | COc1ccc2[nH]c(C(=O)N3CCN(C(=O)OCc4ccc5c(Cl)cc(Cl)c(O)c5n4)CC3)cc2c1 | 2.59 | 3.68 | 3.36 | 17.6 | 3.08 | 1.87 | 1.86 µM | 1.61 | 3.02 | 3.39 | 1.28 | 1.69 | 0.592 | 0.527 | 0.401 | 1.59 | 1.55 | 1.56 | 5.36 | 1.61
4 | COc1cc(C)c2c(c1)CN1CN2Cc2cc(OC)cc(C)c21 | 79 | > 100 | > 100 | > 100 | > 100 | > 100 | > 100 µM | > 100 | > 100 | > 100 |  |  |  |  |  |  |  |  |  | 
5 | O=C(c1ccccc1)C1N=NN(Cc2ccccc2[N+](=O)[O-])C1C(=O)c1ccccc1 (configuration not stated) | > 100 | > 100 | > 100 | > 100 | > 100 | > 100 | > 100 µM | > 100 | > 100 | > 100 |  |  |  |  |  |  |  |  |  | 
6 | Cc1ccc(/C(=N/Nc2ccc([N+](=O)[O-])cc2)Sc2cc(Cl)c(C)cc2S(N)(=O)=O)cc1 | 3.64 | 3.18 | 5.34 | 4.34 | 6.16 | 6.51 | 14.6 µM | 10.5 | 4.58 | 7.45 | 1.73 | 1.37 | 2.37 | 2.44 | 2.55 | 1.91 | 2.55 | 2.35 | 1.94 | 2.45
7 | C[C@@]1(F)[C@H](O)[C@@H](CO)O[C@H]1n1ccc(=O)[nH]c1=O | > 100 | > 100 | > 100 | > 100 | > 100 | > 100 | > 100 µM | > 100 | > 100 | > 100 | > 100 | > 100 | > 100 | > 100 | > 100 | > 100 | > 100 | > 100 | > 100 | > 100
8 | CCCCCCCC(=O)OCC/C=C/C1OC1C1OC(=O)/C=C\C=C\C(=O)N(C(C)=O)C(=O)/C=C(/C)CCC2OC2C1OC(=O)NC(C)=O (configuration not stated) | > 25 | 11.7 | > 25 | > 25 | 11.5 | 9.94 | 8.28 µM | 24 | > 25 | > 25 | 6.27 | 3.88 | 2.14 | 3.21 | 6.42 | > 25 | 21.6 | 7.45 | > 25 | 4.88
9 | COC1=CC(=O)O/C1=C(\OC)C1OC1c1ccccc1 (configuration not stated) | > 100 | > 100 | > 100 | > 100 | > 100 | > 100 | > 100 µM | > 100 | > 100 | > 100 |  |  |  |  |  |  |  |  |  | 
10 | CC(=O)Nc1ccc(C2CC(c3ccc([N+](=O)[O-])cc3)=Nc3ccccc3S2)cc1 (configuration not stated) | 32.1 | 30.6 | 50.8 | 87.8 | 41.5 | 32.1 | 67.2 µM | 32.3 | 35.1 | 56 |  |  |  |  |  |  |  |  |  | 
11 | Cc1cc2c(c(C(=O)O)c1C)-c1cccc(Cl)c1C2=O | > 100 | > 100 | > 100 | > 100 | > 100 | > 100 | > 100 µM | > 100 | > 100 | > 100 |  |  |  |  |  |  |  |  |  | 
12 | Cn1c(=O)oc2cc(C3CCC(=O)N3Cc3csc(-c4ccccc4)n3)ccc21 (configuration not stated) | > 100 | > 100 | > 100 | > 100 | > 100 | > 100 | > 100 µM | > 100 | > 100 | > 100 |  |  |  |  |  |  |  |  |  | 
13 | CC1(C)CC(C)(C)c2cc(NC(=S)Nc3ccc([N+](=O)[O-])cc3)ccc2S1 | 25 | 34.8 | > 49.5 | 54.8 | 49.3 | 24.6 | 29 µM | > 80.2 | 10.1 | 52.7 | 10.9 | 10.9 | 10.1 | 10.5 | 15.6 | 2.62 | 12.3 | 18.3 | 16.5 | 14.2
14 | Cc1cc(Cl)ccc1NC(=O)CCCC(=O)C1C/C(=N/O)CC/C1=N\O (configuration not stated) | > 100 | > 100 | > 100 | > 100 | > 100 | > 100 | > 100 µM | > 100 | > 100 | > 100 |  |  |  |  |  |  |  |  |  | 
15 | Cc1cc(=O)[nH]c(NNC(C#N)c2cccc([N+](=O)[O-])c2)n1 (configuration not stated) | > 100 | > 100 | > 100 | > 100 | > 100 | > 100 | > 100 µM | > 100 | > 100 | > 100 |  |  |  |  |  |  |  |  |  | 
16 | CCOc1ccc(NC(=O)/C(CC(=O)c2c[n+](=O)c3ccccc3n2[O-])=N\OCCCc2ccccc2)cc1 | > 100 | > 100 | > 100 | > 100 | > 100 | > 100 | > 100 µM | > 100 | > 100 | > 100 |  |  |  |  |  |  |  |  |  | 
